Measured values taken from patent US20100087466A1, “NOVEL SMALL MOLECULE DNAK INHIBITORS” (priority 2008, published 2010).
Values after ≈ are worked out from the molar mass of the structure shown. Counter-ions that a name gives are not always drawn. Like-named read-outs stand apart in the source and are kept apart here. Non-standard residues stand in square brackets, D forms with d. Residues, ends and D or L forms follow the SMILES beside them. *: point of attachment. Phe(4-F) = N[C@@H](Cc1ccc(F)cc1)C(=O)O; Hyp = O=C(O)[C@@H]1C[C@@H](O)CN1; Octanoyl = CCCCCCCC(=O)*; Piperidide = C1CCN(*)CC1; Bn = c1ccc(C*)cc1

Experiments:
[1] = tested on: H. influenzae (Strain 110); test: H. influenzae Inhibition Assay (broth microdilution MIC), Strain 110; type: cell-based; details: for MIC: Haemophilus influenzae
Protocol: (§1) An in vitro assay may be conducted by determining the minimum inhibitory concentration (MIC) of the small molecules to Gram negative bacteria, such as H. influenza. H. influenzae MICs are determined using CLSI recommended broth microdilution methodology (M7-A7). Test agent powders are dissolved in DMSO, serial dilutions are also made in DMSO and 1:100 dilutions of each are then prepared in Haemophilus Test media (HTM). 100 μL of each final dilution are transferred to appropriate wells of a 96 well microtiter plate. The test organism is suspended in saline or Mueller Hinton broth to an organism density equivalent to a 0.5 McFarland Standard. 300 μL of the H. influenzae suspension is transferred to 11 mLs of HTM and 10 μL of this suspension is transferred to each well of the microtiter plate. […] Colony counts are determined for each inoculum and expected range of final organism concentration is 3-7×10^5 CFU/mL. One of the recommended H. influenzae quality control strains (ATCC 49247 or 49766) is also tested on each testing day.
as §1, with “H.” for “An in vitro assay may be conducted by determining the minimum inhibitory concentration (MIC) of the small molecules to Gram negative bacteria, such as H. influenza. H.”
(§2) Pyrrhocoricin was used as a control. MIC is defined as the lowest concentration of an anti-bacterial agent that will inhibit the visible growth of a microorganism after overnight incubation.

[2] = molecular target: DnaK (Escherichia coli, UniProt P0A6Y8); test: DnaK Inhibition Assay (DnaK induced refolding of denatured firefly luciferase); type: biochemical, E. coli; details: DnaK 200 nM, DnaJ 100 nM, GrpE 400 nM
Protocol: Inhibition of the bacterial DnaK chaperone system may be evaluated by inhibition of the DnaK induced refolding of denatured firefly luciferase. More specifically, firefly luciferase is denatured by treatment with 8N guanidium hydrochloride at room temperature for 30 mins and then 5° C. for 1 h. After dilution into cold MOPS buffer augmented with ATP (2.5 mM) and DTT (12.5 mM) and standing for a further hour, the denatured luciferase is refolded by addition to a mixture of chaperone proteins in MOPS buffer, resulting in a reaction mixture containing denatured luciferase (24 nM), DnaK (200 nM), DnaJ (100 nM) and GrpE (400 nM). The extent of refolding is determined by addition of a luciferase substrate and measurement of the emitted chemoluminescence. In this format the substrate is the commercially available luciferase “Steady-Glo” reagent from Promega, Inc. Inhibition of DnaK induced refolding is determined by premixing the chaperone proteins with the test agent at concentrations of test agent ranging from 1-100 μg/mL. The extent of refolding is compared to that with no test reagent, and the IC50 is estimated by fitting the data to a standard sigmoidal dose-response curve.
Inhibition of the bacterial DnaK chaperone system was evaluated by inhibition of the DnaK induced refolding of denatured firefly luciferase. Firefly luciferase was denatured by treatment with 8N guanidium hydrochloride at room temperature for 30 mins and then 5° C. for 1 h. After dilution into cold MOPS buffer augmented with ATP (2.5 mM) and DTT (12.5 mM) and standing for a further hour, the denatured luciferase was refolded by addition to a mixture of chaperone proteins in MOPS buffer, resulting in a reaction mixture containing denatured luciferase (24 nM), DnaK (200 nM), DnaJ (100 nM) and GrpE (400 nM). The extent of refolding was determined by addition of a luciferase substrate and measurement of the emitted chemoluminescence. In this format the substrate is the commercially available luciferase “Steady-Glo” reagent from Promega, Inc. Inhibition of DnaK induced refolding was determined by premixing the chaperone proteins with the test agent at concentrations of test agent ranging from 1-100 μg/mL. The extent of refolding was compared to that with no test reagent, and the IC50 was estimated by fitting the data to a standard sigmoidal dose-response curve.
IC50 is defined as the concentration in μM at which 50% inhibition of DnaK induced refolding of denatured firefly luciferase occurs.

[3] = tested on: H. influenzae (Strain 109); test: H. influenzae Inhibition Assay (broth microdilution MIC), Strain 109; type: cell-based; details: for MIC: Haemophilus influenzae
Protocol: as §1
as §1, with “H.” for “An in vitro assay may be conducted by determining the minimum inhibitory concentration (MIC) of the small molecules to Gram negative bacteria, such as H. influenza. H.”
as §2

[4] = tested on: E. coli (ATCC 25922); test: Antibacterial activity against E. coli (MIC); type: cell-based; details: Escherichia coli, ATCC25922
[5] = Strain 110, HTM, 35° C., 20-24 hours, read-out: H. influenzae (Strain 110) MIC
[6] = read-out: DnaK IC50(μg/ml) (converted)
[7] = Strain 109, HTM, 35° C., 20-24 hours, read-out: H. influenzae (Strain 109) MIC

DnaK, sequence (P0A6Y8 2-638): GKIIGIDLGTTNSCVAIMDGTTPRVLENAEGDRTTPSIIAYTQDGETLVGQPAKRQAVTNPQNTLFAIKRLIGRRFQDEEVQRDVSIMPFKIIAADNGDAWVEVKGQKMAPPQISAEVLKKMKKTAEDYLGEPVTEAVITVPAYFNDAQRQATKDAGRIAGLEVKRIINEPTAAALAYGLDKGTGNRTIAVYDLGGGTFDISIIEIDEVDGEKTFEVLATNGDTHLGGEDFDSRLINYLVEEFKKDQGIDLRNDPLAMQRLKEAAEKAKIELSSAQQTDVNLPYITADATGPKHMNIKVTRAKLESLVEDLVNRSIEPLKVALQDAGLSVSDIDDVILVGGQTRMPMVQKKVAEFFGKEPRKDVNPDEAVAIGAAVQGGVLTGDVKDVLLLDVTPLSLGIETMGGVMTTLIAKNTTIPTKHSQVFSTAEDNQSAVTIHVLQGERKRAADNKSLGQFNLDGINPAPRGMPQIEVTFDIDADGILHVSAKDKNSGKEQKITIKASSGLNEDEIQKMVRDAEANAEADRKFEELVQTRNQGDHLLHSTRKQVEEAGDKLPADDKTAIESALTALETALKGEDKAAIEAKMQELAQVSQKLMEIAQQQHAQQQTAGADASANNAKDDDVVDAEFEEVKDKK

Row | Compound | MIC [1, 5] [µg/mL] | IC50 ([2]; read-out: DnaK IC50) [µM] | IC50 [2, 6] [µM] | MIC [3, 7] [µg/mL] | inhibition of H. influenzae strain 109 compared with the control pyrrhocoricin [3] | MIC ([1]; read-out: H. influenzae (Strain 110) MIC (μg/ml)) [µg/mL] | inhibition of H. influenzae strain 110 compared with the control pyrrhocoricin ([1]; strain 110) | MIC ([3]; read-out: H. influenzae (Strain 109) MIC (μg/ml)) [µg/mL] | MIC [4] [µg/mL]
1 | CCC(C)[C@H](NC(C)=O)C(=O)N[C@@H](CCCCNC(=O)OCc1ccccc1)C(=O)N1CCC[C@H]1C(=O)O (some centres unmarked) [Structure 22, Ac-Ile-Lys(Cbz)-Pro-OH] | > 128 | 14 | 50.7 | 2 (≈ 3.75 µM) | lower concentration than the control |  |  |  | 
2 | CC(=O)N[C@@H](Cc1ccc(F)cc1)C(=O)N[C@@H](CC(C)C)C(=O)N1CCC[C@H]1C(=O)O [Structure 11] (Ac-[Phe(4-F)]-Leu-Pro-OH) | > 128 | 69 | 363 | 4 (≈ 9.18 µM) | lower concentration than the control |  |  |  | 
3 | COC(=O)[C@@H]1CCCN1C(=O)[C@H](CC(C)C)NC(=O)[C@H](Cc1ccc(OCc2ccccc2)cc1)NC(C)=O [Structure 2, Ac-Tyr(Bzl)-Leu-Pro-OMe] (Ac-Tyr(Bn)-Leu-Pro-OMe) | > 128 | 63 | 219 | 32 (≈ 59.5 µM) | lower concentration than the control |  |  |  | 
4 | CC(=O)N[C@@H](Cc1ccc(OCc2ccccc2)cc1)C(=O)N[C@@H](CC(C)C)C(=O)N1CCC[C@H]1C(=O)O [Structure 3, Ac-Tyr(Bzl)-Leu-Pro-OH] (Ac-Tyr(Bn)-Leu-Pro-OH) |  | 110 | 399 |  | surpasses that of pyrrhocoricin | 64 (≈ 122 µM) | surpasses that of pyrrhocoricin | 32 (≈ 61.1 µM) | 
5 | CCCCCCCC(=O)N[C@H](Cc1ccc(OCc2ccccc2)cc1)C(=O)N[C@@H](CC(C)C)C(=O)N1CCC[C@H]1C(=O)N[C@H](CCCNC(=N)N)C(=O)OC [Structure 25, Octanoyl-(D)-Tyr(Bzl)-Leu-Pro-Arg-OMe trifluoroacetate] (Octanoyl-[dY](Bn)LP[dR]-OMe) |  | 20 | 23.1 |  |  |  |  |  | 128
6 | CCCCCCCC(=O)N[C@@H](Cc1ccc(OCc2ccccc2)cc1)C(=O)N[C@@H](CC(C)C)C(=O)N1C[C@H](O)C[C@H]1C(=O)N[C@H](CCCNC(=N)N)C(=O)N1CCCCC1 [Structure 32, Octanoyl-Tyr(Bzl)-Leu-Hyp-ArgN(CH2)5 trifluoroacetate] (Octanoyl-Y(Bn)L[Hyp][dR]-Piperidide) |  | 12 | 14.2 |  |  |  |  |  | 64
7 | COC(=O)[C@@H]1CCCN1C(=O)[C@H](CC(C)C)NC(=O)[C@H](Cc1ccc(F)cc1)NC(C)=O [Structure 10, Ac(4-F)Phe-Leu-Pro-OMe] (Ac-[Phe(4-F)]-Leu-Pro-OMe) | > 128 | 26 | 127 | 32 (≈ 71.2 µM) | lower concentration than the control |  |  |  | 
